# Active and inactive are the calls of the source. No cut-off for these calls is given here.
# Tests used:
# [1] = target: T1, Potassium voltage-gated channel subfamily B member 1 (Homo sapiens, UniProt Q14721); test: Inhibition of human KV2.1 stably expressed in HEK293 cells by whole cell patch-clamp assay; type: cell-based
# T1 sequence (Q14721 whole entry): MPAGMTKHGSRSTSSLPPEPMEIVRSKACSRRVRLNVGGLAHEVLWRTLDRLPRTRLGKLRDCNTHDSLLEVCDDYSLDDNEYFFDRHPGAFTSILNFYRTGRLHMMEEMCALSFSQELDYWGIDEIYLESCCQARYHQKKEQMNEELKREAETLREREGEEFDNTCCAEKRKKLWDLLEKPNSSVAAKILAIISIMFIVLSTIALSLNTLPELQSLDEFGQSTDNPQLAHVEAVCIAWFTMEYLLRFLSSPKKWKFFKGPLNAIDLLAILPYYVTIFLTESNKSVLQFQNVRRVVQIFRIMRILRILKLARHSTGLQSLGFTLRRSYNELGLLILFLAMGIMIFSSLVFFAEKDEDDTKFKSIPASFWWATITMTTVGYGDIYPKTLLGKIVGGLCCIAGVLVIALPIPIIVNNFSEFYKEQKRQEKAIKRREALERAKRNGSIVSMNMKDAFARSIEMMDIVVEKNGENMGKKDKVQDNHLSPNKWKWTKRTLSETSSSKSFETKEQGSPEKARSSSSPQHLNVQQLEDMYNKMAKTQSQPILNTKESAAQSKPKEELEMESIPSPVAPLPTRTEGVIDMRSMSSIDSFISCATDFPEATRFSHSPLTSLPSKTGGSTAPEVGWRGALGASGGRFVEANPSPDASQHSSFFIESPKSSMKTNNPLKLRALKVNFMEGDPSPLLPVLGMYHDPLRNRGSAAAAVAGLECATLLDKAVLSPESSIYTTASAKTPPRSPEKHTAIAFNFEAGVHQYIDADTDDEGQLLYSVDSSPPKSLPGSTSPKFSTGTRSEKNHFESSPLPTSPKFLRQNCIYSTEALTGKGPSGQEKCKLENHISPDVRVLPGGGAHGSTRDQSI
# [2] = target: T2, Voltage-gated potassium channel KCNC1 (Homo sapiens, UniProt P48547); test: Inhibition of KV3.1 (unknown origin) by whole cell patch-clamp assay
# T2 sequence (P48547 whole entry): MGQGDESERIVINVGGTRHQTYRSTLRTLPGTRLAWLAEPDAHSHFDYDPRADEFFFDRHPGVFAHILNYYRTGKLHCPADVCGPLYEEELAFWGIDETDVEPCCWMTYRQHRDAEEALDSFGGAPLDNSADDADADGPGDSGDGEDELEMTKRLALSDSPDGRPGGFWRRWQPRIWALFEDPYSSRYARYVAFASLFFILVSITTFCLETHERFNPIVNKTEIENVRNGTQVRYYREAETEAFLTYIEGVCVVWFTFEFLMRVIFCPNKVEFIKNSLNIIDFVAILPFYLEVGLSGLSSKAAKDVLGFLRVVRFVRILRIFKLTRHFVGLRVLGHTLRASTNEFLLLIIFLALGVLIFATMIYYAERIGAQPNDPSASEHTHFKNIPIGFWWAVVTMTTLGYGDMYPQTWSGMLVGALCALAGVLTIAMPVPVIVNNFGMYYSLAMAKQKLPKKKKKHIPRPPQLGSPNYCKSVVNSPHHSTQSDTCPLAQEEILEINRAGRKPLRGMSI
# [3] = target: Potassium voltage-gated channel subfamily A member 5 (Homo sapiens, UniProt P22460); test: Inhibition of KV1.5 (unknown origin) by whole cell patch-clamp assay
# [4] = target: Voltage-gated inwardly rectifying potassium channel KCNH2 (Homo sapiens, UniProt Q12809); test: Inhibition of human ERG by whole cell patch-clamp assay; type: toxicity
# [5] = target: T3, Potassium voltage-gated channel subfamily B member 1 (Homo sapiens) (UniProt Q14721); test: Inhibition of human KV2.1 stably expressed in HEK293 cells at 1 uM by whole cell patch-clamp assay; type: cell-based
# T3 sequence (whole entry): T1 sequence (Q14721 whole entry)
# Sequence of Potassium voltage-gated channel subfamily A member 5 (P22460 whole entry): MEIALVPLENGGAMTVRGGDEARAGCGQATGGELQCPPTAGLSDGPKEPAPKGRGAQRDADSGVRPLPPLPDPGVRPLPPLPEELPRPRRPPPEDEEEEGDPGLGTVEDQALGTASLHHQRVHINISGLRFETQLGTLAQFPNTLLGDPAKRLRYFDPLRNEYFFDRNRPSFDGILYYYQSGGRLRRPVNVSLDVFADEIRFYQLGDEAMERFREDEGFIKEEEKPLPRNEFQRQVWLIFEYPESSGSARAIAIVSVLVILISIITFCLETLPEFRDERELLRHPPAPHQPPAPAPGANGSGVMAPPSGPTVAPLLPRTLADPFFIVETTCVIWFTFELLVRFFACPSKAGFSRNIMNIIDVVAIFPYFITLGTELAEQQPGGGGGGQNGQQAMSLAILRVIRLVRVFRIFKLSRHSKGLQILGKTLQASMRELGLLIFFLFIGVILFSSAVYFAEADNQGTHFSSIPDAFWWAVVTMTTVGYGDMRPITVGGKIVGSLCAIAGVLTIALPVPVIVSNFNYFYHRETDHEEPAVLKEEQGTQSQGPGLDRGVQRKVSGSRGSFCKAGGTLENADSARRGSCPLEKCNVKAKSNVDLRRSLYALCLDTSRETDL
# Sequence of Voltage-gated inwardly rectifying potassium channel KCNH2 (Q12809 whole entry): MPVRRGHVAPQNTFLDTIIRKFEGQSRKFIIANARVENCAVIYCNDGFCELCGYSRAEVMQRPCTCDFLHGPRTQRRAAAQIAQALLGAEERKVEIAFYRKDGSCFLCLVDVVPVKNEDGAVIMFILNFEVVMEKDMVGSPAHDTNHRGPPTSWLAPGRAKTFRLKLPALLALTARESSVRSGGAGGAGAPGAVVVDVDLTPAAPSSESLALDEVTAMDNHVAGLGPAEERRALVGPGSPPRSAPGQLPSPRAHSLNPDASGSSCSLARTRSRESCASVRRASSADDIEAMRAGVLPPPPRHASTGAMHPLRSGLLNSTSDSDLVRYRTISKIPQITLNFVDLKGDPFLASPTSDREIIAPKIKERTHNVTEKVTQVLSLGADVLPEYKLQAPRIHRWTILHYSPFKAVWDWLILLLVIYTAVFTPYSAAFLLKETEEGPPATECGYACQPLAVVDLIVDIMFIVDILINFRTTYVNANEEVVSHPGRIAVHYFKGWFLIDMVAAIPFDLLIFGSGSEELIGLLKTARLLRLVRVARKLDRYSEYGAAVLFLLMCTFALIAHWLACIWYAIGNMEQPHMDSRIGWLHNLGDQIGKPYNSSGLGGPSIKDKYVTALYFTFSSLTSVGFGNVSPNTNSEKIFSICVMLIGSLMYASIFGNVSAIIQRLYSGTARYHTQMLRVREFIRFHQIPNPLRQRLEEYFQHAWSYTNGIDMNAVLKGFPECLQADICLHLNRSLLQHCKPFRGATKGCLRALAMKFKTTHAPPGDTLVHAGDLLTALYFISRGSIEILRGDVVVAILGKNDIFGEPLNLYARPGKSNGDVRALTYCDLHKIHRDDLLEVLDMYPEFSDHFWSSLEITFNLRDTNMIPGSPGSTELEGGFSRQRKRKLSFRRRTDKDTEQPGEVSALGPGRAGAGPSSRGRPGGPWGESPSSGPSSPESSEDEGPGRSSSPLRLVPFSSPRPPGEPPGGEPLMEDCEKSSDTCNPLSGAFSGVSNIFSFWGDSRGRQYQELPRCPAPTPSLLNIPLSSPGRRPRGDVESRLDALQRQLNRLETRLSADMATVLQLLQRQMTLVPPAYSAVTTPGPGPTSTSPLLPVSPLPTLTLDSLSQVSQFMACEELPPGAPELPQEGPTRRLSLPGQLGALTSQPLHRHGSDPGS
SMILES,IC50 [1] [µM],also measured
CC(C)C(=O)Nc1ccc(OCC(F)(F)F)c(C(=O)NCc2cccc(-c3nccs3)c2)c1,> 1,
CCOc1ccc(NC(=O)C(C)C)cc1C(=O)NCc1cccc(OC(F)F)c1,0.3,IC50 [2]: > 30 µM; IC50 [3]: 14.2 µM; IC50 [4]: 30 µM
CCOc1ccc(NC(=O)C(C)C)cc1C(=O)NC(C)c1cncc(C)n1 (stereo not drawn),> 1,
CCCOc1ccc(NC(=O)C(C)C)cc1C(=O)NC(C)c1cccc(-c2nccs2)c1 (stereo not drawn),0.59,
CCOc1ccc(NC(=O)C(C)C)cc1C(=O)NC(C)c1ccccc1 (stereo not drawn),~1,
CCOc1ccc(NC(=O)C(C)C)cc1C(=O)NCc1cccc(-c2ccccn2)c1,> 1,
CCOc1ccc(NC(=O)C(C)C)cc1C(=O)NC(C)c1ccnc(OC)c1 (stereo not drawn),0.43,
CC(C)Oc1ccc(NC(=O)C(C)C)cc1C(=O)NC(C)c1cccc(-c2nccs2)c1 (stereo not drawn),> 1,
CCOc1ccc(N2CCCC2=O)cc1C(=O)NCc1cccc(-c2nccs2)c1,,inhibition [5]: inactive
CC(C)C(=O)Nc1ccc(N(C)C)c(C(=O)NCc2ccncc2)c1,,inhibition [5]: inactive
CCOc1ccc(NC(=O)C(C)C)cc1C(=O)N(C)Cc1cccc(-c2nccs2)c1,,inhibition [5]: inactive
CC(C)C(=O)Nc1ccc(N(C)C)c(C(=O)NCc2cccc3ccccc23)c1,> 1,
CC(C)C(=O)Nc1ccc(N(C)C)c(C(=O)NCc2cccc(-c3ccccc3)c2)c1,3.55,
CCOc1ccc(NC(C)=O)cc1C(=O)NC(C)c1cccc(-c2nccs2)c1 (stereo not drawn),~10,
CC(C)C(=O)Nc1ccc(N(C)C)c(C(=O)NCc2cccc(-c3nccs3)c2)c1,0.39,IC50 [2]: > 30 µM; IC50 [3]: 11 µM; IC50 [4]: 30 µM
CC(C)C(=O)Nc1ccc(N(C)C)c(C(=O)NC(C)c2ccccc2)c1 (racemic),0.48,
CCOc1ccc(C(=O)NC(C)C)cc1C(=O)NCc1cccc(-c2nccs2)c1,,inhibition [5]: inactive
CCOc1ccc(NC(=O)C(C)C)cc1C(=O)NC(C)c1cccc(-c2ncccn2)c1 (stereo not drawn),0.66,
CCOc1ccc(NC(=O)C(C)C)cc1C(=O)NC(C)c1cccc(N2CCC2)c1 (stereo not drawn),0.32,
CCOc1ccc(NC(=O)C(C)C)cc1C(=O)NC(C)c1cccc(Br)c1 (stereo not drawn),~1,
CCOc1ccc(NC(=O)C(C)C)cc1C(=O)NC(C)c1cccc(-c2nccs2)c1 (stereo not drawn),0.43,IC50 [2]: > 30 µM; IC50 [3]: 10 µM; IC50 [4]: > 30 µM
CCOc1ccc(NC(=O)C(C)C)cc1C(=O)NC(C)c1ccnc(OC)n1 (stereo not drawn),~1,
CC(C)C(=O)Nc1ccc(OCC(F)(F)F)c(C(=O)NC(C)c2cccc(-c3nccs3)c2)c1 (stereo not drawn),> 1,
CCOc1ccc(NS(=O)(=O)CC)cc1C(=O)NC(C)c1cccc(-c2nccs2)c1 (stereo not drawn),10,
CCOc1ccc(NC(=O)C(C)C)cc1C(=O)NC(C)c1cccc(N2CCCC2)c1 (stereo not drawn),~1,
CCOc1ccc(NC(=O)C(C)C)cc1C(=O)NC(C)c1ccnc(NC)n1 (stereo not drawn),> 1,
CCOc1ccc(NC(=O)C2CCCC2)cc1C(=O)NC(C)c1cccc(-c2nccs2)c1 (stereo not drawn),> 10,

SMILES,IC50 [1] [µM],also measured
CC(C)C(=O)Nc1ccc(N(C)C)c(C(=O)NCc2ccccn2)c1,0.54,IC50 [2]: > 30 µM; IC50 [3]: > 30 µM; IC50 [4]: 30 µM
CCOc1ccc(NC(=O)C(C)C)cc1C(=O)NC(C)c1cccc(F)n1 (stereo not drawn),0.32,
CCOc1ccc(NC(=O)C(C)C)cc1C(=O)NC(C)c1ccnc(Cl)n1 (stereo not drawn),~1,
CC(C)C(=O)Nc1ccc(N(C)C)c(C(=O)NCc2cccnc2)c1,> 1,
CC(C)COc1ccc(NC(=O)C(C)C)cc1C(=O)NC(C)c1cccc(-c2nccs2)c1 (stereo not drawn),> 1,
CCOc1ccc(NC(=O)C(C)C)cc1C(=O)NC(C)c1ccnc(C)n1 (stereo not drawn),~1,
CCOc1ccc(NC(=O)c2ccccc2)cc1C(=O)NCc1cccc(-c2nccs2)c1,,inhibition [5]: inactive
CCOc1ccc(NC(=O)C(C)C)cc1C(=O)NCc1cccc(Br)c1,~1,
CCOc1ccc(NC(=O)CC)cc1C(=O)NC(C)c1cccc(-c2nccs2)c1 (stereo not drawn),~10,
CCOc1ccc(NC(=O)C2CCC2)cc1C(=O)NC(C)c1cccc(-c2nccs2)c1 (stereo not drawn),0.55,
CCOc1ccc(NC(=O)C(C)C)cc1C(=O)NC(C)c1cccc(OC)n1 (stereo not drawn),0.05,IC50 [3]: 10 µM; IC50 [4]: > 30 µM
CC(C)C(=O)Nc1ccc(N(C)C)c(C(=O)NCc2cccc(-c3ccco3)c2)c1,> 1,
CCOC(=O)Nc1ccc(OCC)c(C(=O)NC(C)c2cccc(-c3nccs3)c2)c1 (stereo not drawn),1.1,
CCOc1ccc(NC(=O)C(C)C)cc1C(=O)NC(C)c1cccc(OC)c1 (stereo not drawn),0.37,
CCOc1ccc(NC(=O)C(C)C)cc1C(=O)NC(C)c1cccc(OC(F)F)c1 (stereo not drawn),0.25,IC50 [3]: 10 µM; IC50 [4]: 10 µM
CCOc1ccc(NC(=O)C2CC2)cc1C(=O)NC(C)c1cccc(-c2nccs2)c1 (stereo not drawn),1.1,
CCOc1ccc(NC(=O)C(F)(F)F)cc1C(=O)NC(C)c1cccc(-c2nccs2)c1 (stereo not drawn),> 10,
CCOc1ccc(NC(=O)C(C)C)cc1C(=O)NC(C)c1cccc(C)c1 (stereo not drawn),0.08,IC50 [2]: > 30 µM; IC50 [3]: 5.7 µM; IC50 [4]: 30 µM
CCOc1ccc(NC(=O)OC(C)C)cc1C(=O)NC(C)c1cccc(-c2nccs2)c1 (stereo not drawn),1,
CC(C)C(=O)Nc1cccc(C(=O)NC(C)c2cccc(-c3nccs3)c2)c1 (stereo not drawn),> 1,
CCOc1ccc(NC(=O)C(C)C)cc1C(=O)NCc1cccc(-c2nccs2)c1,0.53,
COc1ccc(NC(=O)C(C)C)cc1C(=O)NC(C)c1cccc(-c2nccs2)c1 (stereo not drawn),3,
CCOc1ccc(NC(=O)C(C)C)cc1C(=O)NC(C)c1cccc(Cl)n1 (stereo not drawn),~1,
CCOc1ccc(NC(=O)C(C)C)cc1C(=O)NCc1cccc(OC(F)(F)F)c1,0.337,
CCOc1ccc(NC(=O)C(C)C)cc1C(=O)NCc1cccc(N2CCCC2)c1,~1,
CCOc1ccc(N(C)C(=O)C(C)C)cc1C(=O)NCc1cccc(-c2nccs2)c1,,inhibition [5]: inactive
CCOc1ccc(NC(=O)C(C)C)cc1C(=O)NC(C)c1cccc(Br)n1 (stereo not drawn),~1,

# From ChEMBL document CHEMBL5532672, “Discovery of 2-Ethoxy-5-isobutyramido-N-1-substituted Benzamide Derivatives as Selective Kv2.1 Inhibitors with In Vivo Neuroprotective Effects” (J Med Chem, 2024)
